Laboratory results from US20090143279A1 (priority 2007, published 2009).
Read-outs that look alike come from different tables or passages of the source.

How the values were obtained:
mtOXPHOS transcripts = assay type: cell-based, mouse
[1] = system: mitochondrial membrane potential; assay type: cell-based, mouse
nuOXPHOS transcripts = assay type: cell-based, mouse
reactive oxygen species = assay type: cell-based, mouse
[2] = system: cellular dehydrogenase activity
OXPHOS gene expression = assay type: cell-based, mouse
cytochrome c = assay type: cell-based, mouse
[3] = composite Z-score vs mock-treated (DMSO) wells, Conc 20 μM
[4] = 20 μM, composite Z-score vs DMSO
[5] = composite Z-score vs DMSO, Conc 20 μM
[6] = composite Z-score vs DMSO wells, Conc 20 μM

With `C=C(C)[C@H]1COc2cc3oc(=O)ccc3cc2O1` [obliquin] the mitoOX (mtOXPHOS transcripts; [3]) was 0.105, the ΔΨm [1, 3] was 0.088 and the Viability (C2C12 myotubes; [3]) was 0.539. The nucOX (nuOXPHOS transcripts; [3]) was −0.459, the ROS (reactive oxygen species; [3]) was 0.977 and the MTT [2, 3] was −0.268. It also gave a GE-HTS (OXPHOS gene expression; [3]) of −0.313 and a cyt c (cytochrome c; [3]) of −1.172.
`C[C@@H]([C@H]1OC(C)(C)[C@@H](O)[C@H]1O)[C@@H]1CC[C@]2(C)C3=CC[C@H]4C(C)(C)C(=O)CC[C@]4(C)[C@H]3CC[C@@]12C` [odoratone] was tested, and the mitoOX (mtOXPHOS transcripts; [3]) was −0.873, the ΔΨm [1, 3] was 0.367 and the Viability (C2C12 myotubes; [3]) was 0.542. For the same compound, the nucOX (nuOXPHOS transcripts; [3]) was −0.988, the ROS (reactive oxygen species; [3]) was 0.083 and the MTT [2, 3] was −1.060. For the same compound, the GE-HTS (OXPHOS gene expression; [3]) was −0.994 and the cyt c (cytochrome c; [3]) was 0.707.
For `CC1COc2c(N3CCN(C)CC3)c(F)cc3c(=O)c(C(=O)O)cn1c23` (centres unmarked) [ofloxacin], the mitoOX (mtOXPHOS transcripts) was 0.353, the mitoOX (mtOXPHOS transcripts; [4]) was −0.041 and the ΔΨm [1] was −0.891. The ΔΨm [1, 4] was −0.281, the Viability (C2C12 myotubes) was −0.425 and the Viability (C2C12 myotubes; [4]) was −1.148. It also gave a nucOX (nuOXPHOS transcripts) of 0.059, a nucOX (nuOXPHOS transcripts; [4]) of −0.622 and an ROS (reactive oxygen species) of 0.908. For the same compound, the ROS (reactive oxygen species; [4]) was −0.182, the MTT [2] was −0.967 and the MTT [2, 4] was −1.248. It also gave a GE-HTS (OXPHOS gene expression) of 0.182, a GE-HTS (OXPHOS gene expression; [4]) of −0.458 and a cyt c (cytochrome c) of 0.492. The cyt c (cytochrome c; [4]) was 0.309.
`CC1(C)CC[C@]2(C(=O)O)CC[C@]3(C)C(=CC[C@@H]4[C@@]5(C)CC[C@H](O)C(C)(C)[C@@H]5CC[C@]43C)[C@@H]2C1` [oleanoic acid] gave a mitoOX (mtOXPHOS transcripts; [3]) of −1.014, a ΔΨm [1, 3] of −0.910 and a Viability (C2C12 myotubes; [3]) of 0.492. It also gave a nucOX (nuOXPHOS transcripts; [3]) of −1.408, an ROS (reactive oxygen species; [3]) of −0.144 and an MTT [2, 3] of −0.720. For the same compound, the GE-HTS (OXPHOS gene expression; [3]) was −1.379 and the cyt c (cytochrome c; [3]) was 0.754.
With `Cc1cc(O)cc(O)c1C(=O)O` [orsellinic acid] the mitoOX (mtOXPHOS transcripts; [3]) was −0.333, the ΔΨm [1, 3] was −0.846 and the Viability (C2C12 myotubes; [3]) was −0.320. For the same compound, the nucOX (nuOXPHOS transcripts; [3]) was −0.350, the ROS (reactive oxygen species; [3]) was 1.236 and the MTT [2, 3] was −1.311. It also gave a GE-HTS (OXPHOS gene expression; [3]) of −0.348 and a cyt c (cytochrome c; [3]) of −0.015.
Compound `C[C@@H]1O[C@@H](O[C@H]2C[C@@H](O)[C@]3(CO)[C@H]4[C@H](O)C[C@]5(C)[C@@H](C6=CC(=O)OC6)CC[C@]5(O)[C@@H]4CC[C@]3(O)C2)[C@H](O)[C@H](O)[C@H]1O` [ouabain] has a mitoOX (mtOXPHOS transcripts; [5]) of −1.547, a ΔΨm [1, 5] of −1.093 and a Viability (C2C12 myotubes; [5]) of −0.631. For the same compound, the nucOX (nuOXPHOS transcripts; [5]) was −0.986, the ROS (reactive oxygen species; [5]) was 0.466 and the MTT [2, 5] was −2.101. The GE-HTS (OXPHOS gene expression; [5]) was −1.278 and the cyt c (cytochrome c; [5]) was 0.262.
Work on `Cc1onc(-c2ccccc2)c1C(=O)N[C@@H]1C(=O)N2[C@@H]1SC(C)(C)[C@@H]2C(=O)[O-].[Na+]` [oxacillin sodium] yielded a mitoOX (mtOXPHOS transcripts; [5]) of −0.881, a ΔΨm [1, 5] of −0.432 and a Viability (C2C12 myotubes; [5]) of −1.101. The nucOX (nuOXPHOS transcripts; [5]) was −0.629, the ROS (reactive oxygen species; [5]) was 0.572 and the MTT [2, 5] was −1.064. The GE-HTS (OXPHOS gene expression; [5]) was −0.790 and the cyt c (cytochrome c; [5]) was −0.361.
`CN(C(=O)CN(CCO)CC(=O)N(C)C(C)(C)Cc1ccccc1)C(C)(C)Cc1ccccc1` [oxethazaine] showed a mitoOX (mtOXPHOS transcripts) of 0.609, a mitoOX (mtOXPHOS transcripts; [4]) of −0.486 and a ΔΨm [1] of −0.742. For the same compound, the ΔΨm [1, 4] was 0.173, the Viability (C2C12 myotubes) was −0.497 and the Viability (C2C12 myotubes; [4]) was −0.294. The nucOX (nuOXPHOS transcripts) was 0.335, the nucOX (nuOXPHOS transcripts; [4]) was −0.812 and the ROS (reactive oxygen species) was 1.092. The ROS (reactive oxygen species; [4]) was −0.055, the MTT [2] was −1.374 and the MTT [2, 4] was −1.451. For the same compound, the GE-HTS (OXPHOS gene expression) was 0.473, the GE-HTS (OXPHOS gene expression; [4]) was −0.739 and the cyt c (cytochrome c) was −0.550. For the same compound, the cyt c (cytochrome c; [4]) was −0.278.
In the case of `CCn1cc(C(=O)O)c(=O)c2cc3c(cc21)OCO3` [oxolinic acid], the mitoOX (mtOXPHOS transcripts; [6]) is reported as 0.171, the ΔΨm [1, 6] is reported as −0.640 and the Viability (C2C12 myotubes; [6]) is reported as −0.913. The nucOX (nuOXPHOS transcripts; [6]) was 0.211, the ROS (reactive oxygen species; [6]) was 0.681 and the MTT [2, 6] was −1.598. For the same compound, the GE-HTS (OXPHOS gene expression; [6]) was 0.217, the cyt c (cytochrome c) was 0.227 and the cyt c (cytochrome c; [6]) was 0.083.
With `COC[C@]12CN(C=O)[C@@H]3[C@@H]4[C@H](OC)[C@H]1[C@@]3([C@@H](OC)C[C@H]2O)[C@@H]1C[C@@]2(O)[C@H](OC(=O)c3ccccc3)[C@@H]1[C@]4(OC(C)=O)[C@@H](O)[C@@H]2OC` [oxonitine] the mitoOX (mtOXPHOS transcripts; [3]) was 0.147, the ΔΨm [1, 3] was −1.019 and the Viability (C2C12 myotubes; [3]) was −1.338. It also gave a nucOX (nuOXPHOS transcripts; [3]) of −0.938, an ROS (reactive oxygen species; [3]) of −0.167 and an MTT [2, 3] of −1.730. It also gave a GE-HTS (OXPHOS gene expression; [3]) of −0.636 and a cyt c (cytochrome c; [3]) of 0.394.
`Oc1cccc2cccnc12` [oxyquinoline] showed a mitoOX (mtOXPHOS transcripts) of 0.435, a ΔΨm [1] of −0.867 and a Viability (C2C12 myotubes) of −1.140. For the same compound, the nucOX (nuOXPHOS transcripts) was 0.526, the ROS (reactive oxygen species) was 0.684 and the MTT [2] was −0.815. It also gave a GE-HTS (OXPHOS gene expression) of 0.534 and a cyt c (cytochrome c) of −0.121.
In the case of `NNC(=O)c1ccncc1.Nc1ccc(C(=O)O)c(O)c1` [pasiniazid], the mitoOX (mtOXPHOS transcripts; [5]) is reported as −0.164, the ΔΨm [1, 5] is reported as −0.809 and the Viability (C2C12 myotubes; [5]) is reported as −0.883. For the same compound, the nucOX (nuOXPHOS transcripts; [5]) was −0.022, the ROS (reactive oxygen species; [5]) was 0.502 and the MTT [2, 5] was −0.807. For the same compound, the GE-HTS (OXPHOS gene expression; [5]) was −0.059 and the cyt c (cytochrome c; [5]) was 0.590.
